This is an account of results in patent US11247987B2, “Inhibiting ubiquitin specific peptidase 30” (FORMA Therapeutics, Inc., priority 2017, dated 2022).

SMILES strings stand for the structures.

The assay addresses T1, human recombinant USP30 (Homo sapiens, UniProt Q70CQ3).
T1 construct: purchased Boston Biochem E-582
T1 sequence (Q70CQ3 1-517): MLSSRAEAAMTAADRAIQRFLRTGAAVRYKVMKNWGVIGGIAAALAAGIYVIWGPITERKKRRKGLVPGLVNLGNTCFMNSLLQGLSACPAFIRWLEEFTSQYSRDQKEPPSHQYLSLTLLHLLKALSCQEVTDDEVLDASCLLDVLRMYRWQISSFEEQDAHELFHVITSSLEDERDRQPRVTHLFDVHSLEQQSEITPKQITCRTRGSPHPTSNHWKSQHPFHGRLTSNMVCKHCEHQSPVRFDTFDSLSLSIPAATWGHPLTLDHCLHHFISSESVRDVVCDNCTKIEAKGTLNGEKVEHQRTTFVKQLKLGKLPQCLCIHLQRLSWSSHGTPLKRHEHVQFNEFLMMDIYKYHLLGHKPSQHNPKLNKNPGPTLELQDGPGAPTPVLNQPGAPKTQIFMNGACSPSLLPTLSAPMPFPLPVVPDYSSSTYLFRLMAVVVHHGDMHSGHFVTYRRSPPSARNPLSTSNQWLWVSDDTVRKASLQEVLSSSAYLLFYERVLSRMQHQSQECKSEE
Put plainly: Ubiquitin-Rhodamine 110 Assay for USP30 Activity (USP30 Inhibitor Biochemical Assay). As to conditions: 0.2 nM USP30, 25 nM Ub-Rh110, 30 min preincubation, 30 min at room temperature; read-out: USP30 potency range (USP30 biochemical IC50 assay, IC50 ranges). An outline of the steps: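 Human recombinant USP30 (0.2 nM final) was preincubated 30 min with compound (25 μM to 1.3 nM, 10-point) in Tris pH 8.0, 1 mM GSH, BGG and Triton X-100. Ub-Rh110 was then added for 30 min at room temperature and stopped with citric acid. Fluorescence at 485/535 nm gave % inhibition and a 4-parameter IC50 fit.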
A word on the IC50: it is the concentration needed to halve the response being measured. On to `CCC1(C(=O)Nc2cnc(C3CCCCC3)s2)CC(NC#N)C1` (stereo not shown) [Compound 1-46, (1r,3s)-3-(cyanoamino)-N-(2-cyclohexyl-1,3-thiazol-5-yl)-1-ethylcyclobutane-1-carboxamide], for which the IC50 was in the range of 100 to 1000 nM.

On to `N#CN[C@H]1C[C@H](C(=O)Nc2ncc(C3CCCCC3)s2)C1` [Compound 5-7, trans-3-(cyanoamino)-N-(5-cyclohexyl-1,3-thiazol-2-yl)cyclobutane-1-carboxamide], for which the IC50 fell in the range of 100 to 1000 nM.

Consider `N#CN[C@@H]1CCC[C@H](C(=O)Nc2ncc(C3CCCCC3)s2)C1` [Compound 10-6, (1S,3R)-3-(cyanoamino)-N-(5-cyclohexyl-1,3-thiazol-2-yl)cyclohexane-1-carboxamide], for which the IC50 was 1000 to 10000 nM.

As to `N#CN[C@H]1C[C@H](C(=O)Nc2cc(Cl)n(C3CCCCC3)n2)C1` [Compound 1-39, (1r,3r)-N-(5-chloro-1-cyclohexyl-1H-pyrazo1-3-yl)-3-(cyanoamino)cyclo-butane-1-carboxamide], the IC50 lay within 100 to 1000 nM.
